Measurements reported in patent US20190233409A1, “SUBSTITUTED 2,3,4,5-TETRAHYDRO-1H-PYRIDO[4,3-B]INDOLES, METHODS FOR USE THEREOF” (priority 2017, published 2019).
Where a name gives a salt, the structure may show the parent alone.

How the values were obtained:
[1] = system: calcium canals regulated by the intracellular calcium depot; assay: Histamine-induced calcium stream in SK-N-SH cells, Phase 2 (lowering of intracellular calcium concentration); assay type: cell-based; settings: Homo sapiens, 10 μM histamine, Fura 2 AM, Phase 2: discharge of intraplasmatic calcium
BALB/c male mice [2] = assay: Passive Avoidance of Mice in a Shuttle Chamber, memory disturbed by scopolamine (Example 7); assay type: in vivo; settings: scopolamine 0.3 mg/kg, injected 30 minutes before training
Experimental: Example 7. […] A shuttle chamber (Ugo Basile, Italy) consisted of two sections was used. […] The sections were connected via a hole which could be shut with a vertical door. The floor was made of transverse metal bars on which DC current impulses could be fed. Experiments were carried out on aged male mice of line BALB/c weighing 20-24 grams. […] Each group consisted of at least 8 animals. The animals were placed in the light section, and the latent period of the first entry into the dark chamber was registered. Then the vertical door was closed and the animal was punished by 0.6 mA DC current for 3 seconds. After that the animal was carried back to its living cell. In 22-24 hours the same animal was placed in the light section of the shuttle chamber once again and the latent period before its entry into the dark section, the total time of its stay in the light section and the number of entries into the dark section were registered. Each observation lasted for 5 minutes. The experiment was carried out during the day time in an isolated laboratory using white noise at a level of about 70 decibel above the human hearing threshold. Scopolamine causes the disturbance of training (memory loss) which results in […]. The fact that 5-HT6 receptor antagonists can improve the learning ability that has been disturbed by scopolamine is regarded as evidence for their nootropic effect.

BALB/c male mice [3] = assay: Passive Avoidance of Mice in a Shuttle Chamber, scopolamine or MK-801 (Example 8); assay type: in vivo; settings: scopolamine 0.3 mg/kg or MK-801 0.1 mg/kg
Experimental: Example 7. […] A shuttle chamber (Ugo Basile, Italy) consisted of two sections was used. […] The sections were connected via a hole which could be shut with a vertical door. The floor was made of transverse metal bars on which DC current impulses could be fed. Experiments were carried out on aged male mice of line BALB/c weighing 20-24 grams.
On the first day of the experiment 30 minutes before training the mice were injected intraintestinally with physiological solution of scopolamine (0.3 mg/kg) or scopolamine in combination with antagonists of 5-HT6 receptors 1.2.1(2)HCl, 1.2.1(4)HCl or 1.2.1(5)HCl. Each group consisted of at least 8 animals. The animals were placed in the light section, and the latent period of the first entry into the dark chamber was registered. Then the vertical door was closed and the animal was punished by 0.6 mA DC current for 3 seconds. After that the animal was carried back to its living cell. In 22-24 hours the same animal was placed in the light section of the shuttle chamber once again and the latent period before its entry into the dark section, the total time of its stay in the light section and the number of entries into the dark section were registered. Each observation lasted for 5 minutes.
The experiment was carried out in the same way as in example 7. On the first day 30 minutes before training the mice were injected intra-intestinally with a physiological solution of scopolamine (0.3 mg/kg) or MK-801(0.1 mg/kg).

SHK male mice = assay: Recognition of New Objects by Mice Under Scopolamine and MK-801; assay type: in vivo; settings: scopolamine 1 mg/kg and MK-801 0.2 mg/kg
Experimental: The experiments were carried out in a closed cross shaped labyrinth which consisted of 4 peripheral sections connected with the central chamber via a 7×7 cm hole. The labyrinth was made of black plastic and its sections were of 14×14×14 cm size. The top cover of the labyrinth was transparent.
A mouse was placed in the central section of the labyrinth and allowed to investigate the environment. A mouse was considered to have entered a section once all of its four paws were inside the chamber. A test was considered to be completed when the mouse had moved 12 times between the sections, having made a total of 13 visits. The floor of the labyrinth was cleaned after each animal.
With each mouse the test was carried out twice with 1 hour interval.
During the first test, each section of the labyrinth contained a circular plastic cup of 3 cm height and 7 cm diameter. During the second test the cover in each of the two opposing sections was replaced by a conical glass bulb of 7 cm height and 4 cm across the bottom. The time that the mice spent in each section of the labyrinth was registered and the index of new object recognition was calculated as the ratio of the time spent in the sections with the bulbs to the time spent in all sections of the labyrinth. If no preference is given to the sections with new objects the index is 0.5.
When new objects appear the mice spend more time in the section containing them that results in an increased recognition index. Scopolamine (1 mg/kg) and MK-801 (0.2 mg/kg) disturbed learning (memory) that leads to lowering of the recognition index.

`CN1CCc2c(c3ccccc3n2/C=C\c2ccccc2)C1` [1.1(1), cis-2-methyl-5-(2-phenylethenyl)-2,3,4,5-tetrahydro-1H-pyrido[4,3-b]indole] was tested, and the EC50 [1] was 0.18 µM.

Compound `CN1CCc2c(c3ccccc3n2/C=C/c2ccccc2)C1` [1.1(2), trans-2-methyl-5-(2-phenylethenyl)-2,3,4,5-tetrahydro-1H-pyrido[4,3-b]indole] has an EC50 [1] of 2.13 µM.

`CN1CCc2c(c3ccccc3n2/C=C/c2ccncc2)C1` [1.1(3), trans-2-methyl-5-[2-(pyridin-4-yl)ethenyl]-2,3,4,5-tetrahydro-1H-pyrido[4,3-b]indole] was tested, and the EC50 [1] was > 10 µM.

For `CN1CCc2c(c3ccccc3n2/C=C\c2cccnc2)C1` [1.1(4), cis-2-methyl-5-[2-(pyridin-3-yl)ethenyl]-2,3,4,5-tetrahydro-1H-pyrido[4,3-b]indole], the EC50 [1] was > 10 µM.

`CN1CCc2c(c3ccccc3n2/C=C/c2ccccn2)C1` [1.1(5), trans-2-methyl-5-[2-(pyridin-2-yl)ethenyl]-2,3,4,5-tetrahydro-1H-pyrido[4,3-b]indole] was tested, and the EC50 [1] was > 10 µM.

`CN1CCc2c(c3cc(F)ccc3n2/C=C\c2ccccc2)C1` [1.1.1(1), cis-2-methyl-5-(2-phenylethenyl)-8-fluoro-2,3,4,5-tetrahydro-1H-pyrido[4,3-b]indole] was tested, and the EC50 [1] was 0.15 µM.

With `CN1CCc2c(c3cc(F)ccc3n2/C=C\c2cccnc2)C1` [1.1.1(2), cis-2-methyl-5-[2-(pyridin-3-yl)ethenyl]-8-fluoro-2,3,4,5-tetrahydro-1H-pyrido[4,3-b]indole] the EC50 [1] was > 10 µM.

`Cc1ccc2c(c1)c1c(n2/C=C\c2ccccc2)CCN(C)C1` [1.1.1(3), cis-2,8-dimethyl-5-(2-phenylethenyl)-2,3,4,5-tetrahydro-1H-pyrido[4,3-b]indole] showed an EC50 [1] of 0.154 µM.

Work on `CN1CCc2c(c3cc(F)ccc3n2/C=C\c2cccc(F)c2)C1` [1.1.1(6), cis-2-methyl-5-[2-(3-fluorophenyl)ethenyl]-8-fluoro-2,3,4,5-tetrahydro-1H-pyrido[4,3-b]indole] yielded an EC50 [1] of 0.19 µM.

Work on `CN1CCc2c(c3ccccc3n2CCc2ccncc2)C1` [1.2(2)HCl, 2-methyl-5-[2-(pyridin-4-yl)ethyl]-2,3,4,5-tetrahydro-1H-pyrido[4,3-b]indole hydrochloride] yielded an EC50 [1] of 0.5 µM.

`CN1CCc2c(c3ccccc3n2CCc2cccnc2)C1` [1.2(3)HCl, 2-methyl-5-[2-(pyridin-3-yl)ethyl]-2,3,4,5-tetrahydro-1H-pyrido[4,3-b]indole hydrochloride] showed an EC50 [1] of 0.412 µM.

In the case of `CN1CCc2c(c3ccccc3n2CCc2ccccn2)C1` [1.2(4)HCl, 2-methyl-5-[2-(pyridin-2-yl)ethyl]-2,3,4,5-tetrahydro-1H-pyrido[4,3-b]indole hydrochloride], the EC50 [1] is reported as 0.93 µM.

For `Cc1ccc2c(c1)c1c(n2CCc2ccncc2)CCN(C)C1.Cl` [1.2.1(2)HCl, 2,8-dimethyl-5-[2-(pyridin-4-yl)ethyl]-2,3,4,5-tetrahydro-1H-pyrido[4,3-b]indole hydrochloride], the EC50 [1] was 3.98 µM and the “nootropic action (passive avoidance, FIGS. 2-4)” value (BALB/c male mice [2]) was “exhibit a nootropic action which is the most prominent”.

Work on `Cc1ccc2c(c1)c1c(n2CCc2cccnc2)CCN(C)C1` [1.2.1(3)HCl, 2,8-dimethyl-5-[2-(pyridin-3-yl)ethyl]-2,3,4,5-tetrahydro-1H-pyrido[4,3-b]indole hydrochloride] yielded an EC50 [1] of 0.579 µM.

In the case of `Cc1ccc2c(c1)c1c(n2CCc2ccccn2)CCN(C)C1.Cl` [1.2.1(4)HCl, 2,8-dimethyl-5-[2-(pyridin-2-yl)ethyl]-2,3,4,5-tetrahydro-1H-pyrido[4,3-b]indole hydrochloride], the EC50 [1] is reported as 10 µM and the “nootropic action (passive avoidance, FIGS. 2-4)” value (BALB/c male mice [2]) is reported as “exhibit a nootropic action which is the most prominent”.

`Cc1ccc2c(c1)c1c(n2CCc2cnccn2)CCN(C)C1` [1.2.1(6), 2,8-dimethyl-5-[2-(pyrazin-2-yl)ethyl]-2,3,4,5-tetrahydro-1H-pyrido[4,3-b]indole] gave an EC50 [1] of 7.94 µM.

For `CN1CCc2c(c3cc(F)ccc3n2CCc2ccccc2)C1` [1.2.1(7)HCl, 2-methyl-5-(2-phenylethyl)-8 fluoro-2,3,4,5-tetrahydro-1H-pyrido[4,3-b]indole hydrochloride], the EC50 [1] was 0.13 µM.

Compound `CN1CCc2c(c3cc(F)ccc3n2CCc2ccncc2)C1` [1.2.1(8)HCl, 2-methyl-5-[2-(pyridin-4-yl)ethyl]-8-fluoro-2,3,4,5-tetrahydro-1H-pyrido[4,3-b]indole hydrochloride] has an EC50 [1] of 0.47 µM.

`CN1CCc2c(c3cc(F)ccc3n2CCc2cccnc2)C1` [1.2.1(9)HCl, 2-methyl-5-[2-(pyridin-3-yl)ethyl]-8-fluoro-2,3,4,5-tetrahydro-1H-pyrido[4,3-b]indole hydrochloride] gave an EC50 [1] of 0.297 µM.

With `CN1CCc2c(c3cc(F)ccc3n2CCc2ccccn2)C1` [1.2.1(10)HCl, 2-methyl-5-[2-(pyridin-2-yl)ethyl]-8-fluoro-2,3,4,5-tetrahydro-1H-pyrido[4,3-b]indole hydrochloride] the EC50 [1] was 0.61 µM.

Work on `Cc1ccc(CCn2c3c(c4cc(F)ccc42)CN(C)CC3)cn1` [1.2.1(11)HCl, 2-methyl-5-[2-(6-methylpyridin-3-yl)ethyl]-8-fluoro-2,3,4,5-tetrahydro-1H-pyrido[4,3-b]indole hydrochloride] yielded an EC50 [1] of 0.73 µM.

Work on `CN1CCc2c(c3cccc(F)c3n2CCc2ccccc2)C1` [1.2.2(1)HCl] yielded an EC50 [1] of 0.25 µM.

With `CN1CCc2c(c3ccccc3n2C#Cc2ccccc2)C1` [1.3(1), 2-methyl-5-phenylethynyl-2,3,4,5-tetrahydro-1H-pyrido[4,3-b]indole] the EC50 [1] was 10.1 µM.

For `CN1CCc2c(c3ccccc3n2C#Cc2cccnc2)C1` [1.3(3), 2-methyl-5-(pyridin-3-ylethynyl)-2,3,4,5-tetrahydro-1H-pyrido[4,3-b]indole], the EC50 [1] was > 10 µM.

`CN1CCc2c(c3cc(F)ccc3n2C#Cc2cccnc2)C1` [1.3.1(3), 2-methyl-5-(pyridin-3-ylethynyl)-8-fluoro-2,3,4,5-tetrahydro-1H-pyrido[4,3-b]indole] was tested, and the EC50 [1] was > 10 µM.

For `Cc1ccc2c(c1)c1c(n2C#Cc2ccccc2)CCN(C)C1` [1.3.1(5), 2,8-dimethyl-5-phenylethynyl-2,3,4,5-tetrahydro-1H-pyrido[4,3-b]indole], the EC50 [1] was > 10 µM.

For `Cc1ccc2c(c1)c1c(n2C#Cc2cccnc2)CCN(C)C1` [1.3.1(7), 2,8-dimethyl-5-(pyridin-3-ylethynyl)-2,3,4,5-tetrahydro-1H-pyrido[4,3-b]indole], the EC50 [1] was > 10 µM.

`O=S(=O)(c1ccccc1)c1cnc2c(N3CCNCC3)cccc2c1` [SB-742457] was tested, and the “nootropic action (passive avoidance, FIGS. 5-10)” value (BALB/c male mice [3]) was “inactive” and the “nootropic action (new object recognition, FIG. 13-14)” value (SHK male mice) was “nootropic action”.

For `CC12CC3CC(C)(C1)CC(N)(C3)C2` [memantine], the “nootropic action (new object recognition, FIG. 13-14)” value (SHK male mice) was “nootropic action”.
